Source: EP0257285A2, “Method and compositions for reducing the intraocular pressure of mammals” (Whitby Research Incorporated, priority 1986, dated 1988)
Read-outs that look alike come from different tables or passages of the source.

Assays:
[1] = tested on: rabbits; conditions: cited from earlier work
[2] = tested on: monkeys; conditions: Curr. Eye Res. 2, 281-288; cited from earlier work
[3] = tested on: Cebus apella monkeys; experiment: Intraocular pressure (IOP) measurement after topical unilateral application to the eye of monkeys; type: in vivo; conditions: female Cebus apella monkeys, 50ul aliquots, doses 0.165, 0.5 and 1.65 mg, IOP at 0.5, 1, 2, 3, 4 and 5 hours post drug, compared to vehicle alone
Method: Male, albino New Zealand rabbits, and female Cebus apella monkeys are used in the example. Rabbits are used primarily to screen for undue ocular toxicity of 2-(N-propyl-N-2-phenylethylamino)-5-hydroxytetralin (active compound) before conducting experiments in monkeys.
A racemic mixture of 2-(N-propyl-N-2-phenylethylamino)-5-hydroxytetralin (active compound) is dissolved in distilled water (vehicle or carrier) on the day of the experiment. Solutions are administered in a masked manner, that is, solutions are prepared by a person that was neither involved in drug administration nor measurement of intraocular pressure (IOP) and pupil diameter (PD). The solution of the active compound is applied unilaterally with the contralateral (fellow) eye receiving vehicle only. Five monkeys are treated bilaterally with vehicle; one to two vehicle-treated monkeys are included each time a different dose of the active compound is used. Doses of active compound tested are: 0.165, 0.5 and 1.65 mg.
After taking two baseline (0 time) measurements, aliquots (50ul) of the solution of active compound and/or vehicle, only, are administered topically. Subsequently, IOP measurements are made at 0.5, 1, 2, 3, 4 and 5 hours post drug.

[4] = rabbits, Curr. Eye Res. 2, 281-288 and 3, 307-314

| Compound | intraocular pressure of rabbits [1, 4] | intraocular pressure of monkeys [2] | intraocular pressure of rabbits ([1]; rabbit, in vivo) | intraocular pressure [3] |
| --- | --- | --- | --- | --- |
| CCCN1C[C@H](CSC)C[C@@H]2c3cccc4[nH]cc(c34)C[C@H]21 [pergolide] | lower the intraocular pressure of rabbits | lowered the intraocular pressure of monkeys | – | – |
| CC(C)C[C@H]1C(=O)N2CCC[C@H]2[C@]2(O)O[C@](NC(=O)[C@@H]3C=C4c5cccc6[nH]c(Br)c(c56)C[C@H]4N(C)C3)(C(C)C)C(=O)N12 [Bromocriptine] | – | – | lower the intraocular pressure of rabbits | – |
| CN1C[C@H](CC#N)C[C@@H]2c3cccc4[nH]c(Cl)c(c34)C[C@H]21 [lergotrile] | lower the intraocular pressure of rabbits | lowered the intraocular pressure of monkeys | – | – |
| CCCN(CCc1ccccc1)C1CCc2c(O)cccc2C1 (racemic) [active compound, 2-(N-propyl-N-2-phenylethylamino)-5-hydroxytetralin] | – | – | – | effectively lower the intraocular pressure |
